# Data taken from patent US20260132103A1, “Bumetanide Derivatives for the Therapy of Stroke and Other Neurological Diseases/Disorders Involving NKCCs” (University of Pittsburgh - Of the Commonwealth System of …, priority 2018, published 2026).
# Experiments:
# Assay type in all cases: in vivo, mouse
# [1] = system: transient focal cerebral ischemia (tMCAO) in mice; test: Body weight and survival 1-14 days after tMCAO; conditions: for body weight changes: 1-14 days after tMCAO, versus DMSO Veh control; for mortality rate: between 1-14 days post tMCAO, BMT 10, STS5 13, STS66 12 mg/kg/day i.p.
# Protocol: (§1) FIGS. 1A-1C: Efficacy of NKCC1 inhibitors in reducing ischemic infarction, cerebral edema, and the post-stroke survival in normotensive mice after tMCAO (see Example 3). (1A) Experimental protocol and data collection. Transient middle cerebral artery occlusion (tMCAO) was induced in normal C57/b6 mice. DMSO, BMT (10 mg/kg body weight), STS5 (13 mg/kg) or STS66 (12 mg/kg) was administered via intraperitoneal injection (i.p.) as described in method. (1 B) Representative TTC staining images in normotensive mice at 24 h reperfusion with quantitative analysis of infarct volume. Data are mean±SD, n=6-13 (male, n=3-9; female, n=3-4, *p<0.05). Scale: 5 mm. (1C) Percentage hemisphere swelling at 24 h reperfusion. Data are mean±SD, n=6-13, *p<0.05. (1D) Body weight change during 1-14 days after tMCAO. Data are mean±SD, n=5-9 (male, n=4; female, n=2, *p<0.05). (1E) Survival curve during 1-14 day after tMCAO. Data are mean±SD, n=5-9 (male, n=3-7; female, n=2, *p<0.05).
# (§2) Transient focal cerebral ischemia was induced in mice by intraluminal occlusion of the left middle cerebral artery (MCA) for 50 min as described previously (Chen H et al., 2005). Mice were anesthetized with 3% isoflurane in 70%: 30% N2O/O2 until they were unresponsive to the tail pinch test. Animals were then fitted with a nose cone blowing 1.5% isoflurane for anesthesia maintenance. The left common carotid artery was exposed and the occipital artery branches of the external carotid artery were isolated and coagulated. The internal carotid artery was isolated and the extracranial branch was dissected and ligated. A rubber silicon-coated monofilament suture (6-0) was introduced into the internal carotid artery lumen and gently advanced approximately 8-9 mm to block the MCA blood flow for 50 min. The rectal temperature was maintained at 37.0±0.5° C. during surgery through a temperature-controlled heating pad. Achievement of ischemia was confirmed by monitoring regional cerebral blood flow (rCBF) with laser speckle contrast imager (Pericam). For reperfusion, the suture was withdrawn after the MCAO. The incision was closed and the mouse recovered under a heating lamp to maintain the core temperature (36.0-37.0° C.) during the 30-60 min recovery period. After recovery, animals were returned to their cages with free access to food and water.
# (§3) Vehicle: DMSO (2 ml/kg body weight/day), the NKCC1 inhibitor bumetanide (BMT, 10 mg/kg body weight/day in DMSO), bumetanide's prodrug STS5 (13 mg/kg body weight/day in DMSO), or the novel NKCC1 inhibitor STS66 according to the invention (12 mg/kg body weight/day in DMSO) was administered via intraperitoneal injection (i.p). The initial half dose of the drugs (BMT, STS5, STS66) was given at 3 h after the onset of reperfusion and the second half dose at 8 h reperfusion in the tMCAO model.
# [2] = system: transient focal cerebral ischemia (tMCAO) in mice; test: Adhesive tape removal test after tMCAO; conditions: days not given (tests on days 1-14); for adhesive tape removal time, last value of the span: end of the span 'x to y'; for adhesive tape removal time, first value of the given span: start of the span 'x to y'
# Description: (§4) FIGS. 2A-2D: Efficacy of NKCC1 inhibitors on improving neurological function in mice after tMCAO (see Example 3). (A) Neurological score, (B) corner test, (C) foot-fault test, and (D)-(E) adhesive tape test during 1-14 day after tMCAO. Data are mean±SD, n=4-9. *p<0.05 for DMSO vs STS66, **p<0.05 for DMSO vs STS5, ***p<0.05 for DMSO vs BMT, #p<0.05 for BMT vs STS66, ###p<0.05 for STS5 vs STS66.
# as §2, §3
# An adhesive tape removal test was used to measure somatosensory deficits. Two pieces of adhesive tape (4 mm×3 mm) were attached to the forepaws in an alternating sequence and with equal pressure by the experimenter before each trial. The removal time is defined as the time at which the animal removes the tape. The trial ended after the adhesive patch was removed or after 2 min had elapsed. Pre-operative training was carried twice per day for three days and were tested on day 1, 2, 3, 5, 7, 10 and 14 days after tMCAO (Bouet V, et al., 2009).
# [3] = system: transient focal cerebral ischemia (tMCAO) in mice; test: Brain infarct volume and swelling after transient focal cerebral ischemia (tMCAO); conditions: 24 h reperfusion, i.p.; for hemispheric edema (hemisphere swelling) / infarct volume: normotensive C57BL/6j mice, half dose at 3 h and 8 h reperfusion, BMT 10, STS5 13, STS66 12 mg/kg/day, mean±SD; for infarct volume: male and female combined
# Protocol: as §1, §2, §3
# At 24 h post-reperfusion, mice were anesthetized with 5% isoflurane and then decapitated. Coronal brain slices (2 mm thickness) were stained with 1% 2,3,5-triphenyltetrazolium chloridemonohydrate (TTC) for 20-30 min and brain slices were scanned (Begum G et al., 2015). Ischemic lesions were traced in each slice in a blinded manner, and the total volume of infarction was calculated with correction for edema, as described by Swanson et al., 1990 using ImageJ software. Infarct areas were summed across all slices and multiplied by slice thickness to yield total infarct volume (mm^3). Brain swelling was determined with the following formula. For tMCAO: swelling (% contralateral hemispheric volume)=[(ipsilateral hemispheric volume)−(contralateral hemispheric volume)]/(contralateral hemispheric volume)×100, as described before (Guo Q G et al., 2009; Sunghee Cho et al., 2005).
# [4] = system: transient focal cerebral ischemia (tMCAO) in mice; test: Neurological function tests (sensorimotor deficits) after tMCAO; conditions: normotensive mice, 1-14 days monitor and behavior test after stroke
# Description: as §4
# Transient focal cerebral ischemia was induced in mice by intraluminal occlusion of the left middle cerebral artery (MCA) for 50 min as described previously (Chen H et al., 2005). Mice were anesthetized with 3% isoflurane in 70%: 30% N2O/O2 until they were unresponsive to the tail pinch test. Animals were then fitted with a nose cone blowing 1.5% isoflurane for anesthesia maintenance. The left common carotid artery was exposed and the occipital artery branches of the external carotid artery were isolated and coagulated. […]
# Neurological functional deficits in mice were assessed in a blinded manner with the following tests: neurological score, adhesive tape removal test, corner test, cylinder test, and grid walking foot-fault test. These tests are established for identifying and quantifying sensorimotor deficits and postural asymmetries (Bederson J B, et al., 1986; Zhang L, et al., 2002; Schaar K L, et al., 2010).
Compound,body weight changes [1],mortality rate [1],"adhesive tape removal time, last value of the span [2] [s]","adhesive tape removal time, first value of the given span [2] [s]",hemispheric edema (hemisphere swelling) [3] [%],infarct volume [3] [mm^3],sensorimotor deficits [4],"infarct volume in female mice ([3]; female mice only, STS5 13, STS66 12 mg/kg/day) [mm^3]"
"CCCCNc1cc(C(=O)O)cc(S(N)(=O)=O)c1Oc1ccccc1 [BMT, 3-(butylamino)-4-phenoxy-5-sulfamoylbenzoic acid, reference compound]",no differences in the body weight changes,~16.7%,17.4 ± 7.6,109.4 ± 10.8,15.4±5.9,65.2±21.7,improved all sensorimotor deficits,–
"CCCCNc1cc(CNCC(F)(F)F)cc(S(N)(=O)=O)c1Oc1ccccc1 [STS66, 3-(Butylamino)-2-phenoxy-5-[(2,2,2-trifluoroethylamino)methyl]benzenesulfonamide]",no differences in the body weight changes,none of the STS66-treated mice died,10.3 ± 5.2,29.7 ± 36.0,14.1±6.1,69.7±17.9,improved all sensorimotor deficits,74.3±9.2
